Assay [1] has as its target T1, Dual specificity tyrosine-phosphorylation-regulated kinase 2 (Homo sapiens, UniProt Q92630).
T1 sequence (Q92630 whole entry): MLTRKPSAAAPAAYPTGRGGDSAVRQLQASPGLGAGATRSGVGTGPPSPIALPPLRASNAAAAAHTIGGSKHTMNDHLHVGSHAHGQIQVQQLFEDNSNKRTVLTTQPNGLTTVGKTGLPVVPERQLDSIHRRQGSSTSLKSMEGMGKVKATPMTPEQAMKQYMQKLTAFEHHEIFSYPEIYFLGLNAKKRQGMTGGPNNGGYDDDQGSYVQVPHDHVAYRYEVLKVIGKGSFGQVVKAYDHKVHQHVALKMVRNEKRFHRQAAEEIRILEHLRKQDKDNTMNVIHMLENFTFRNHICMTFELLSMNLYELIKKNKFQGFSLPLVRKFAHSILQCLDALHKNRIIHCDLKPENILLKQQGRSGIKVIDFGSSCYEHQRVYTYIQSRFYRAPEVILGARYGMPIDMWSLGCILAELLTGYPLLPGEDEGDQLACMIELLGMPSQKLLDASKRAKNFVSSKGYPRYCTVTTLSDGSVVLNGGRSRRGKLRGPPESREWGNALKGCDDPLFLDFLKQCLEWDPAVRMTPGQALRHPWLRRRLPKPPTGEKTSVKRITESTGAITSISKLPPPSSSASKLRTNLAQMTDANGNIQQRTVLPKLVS

Assay [2] concerns the target Glycogen synthase kinase-3 beta (Homo sapiens, UniProt P49841). Type of assay: cell-based, Sf9.
Assay [3] addresses Dual specificity protein kinase CLK1 (Homo sapiens, UniProt P49759). In kind it is cell-based, Sf9.
Assay [4] has as its target Cyclin-dependent kinase 5/CDK5 activator 1 (Homo sapiens, UniProt Q00535). Type of assay: cell-based, Sf9.
Assay [5] deals with Casein kinase I isoform epsilon (Homo sapiens, UniProt P49674).
The target of assay [6] is Dual specificity protein kinase CLK4 (Homo sapiens, UniProt Q9HAZ1).
Assay [7] concerns the target T2, Dual specificity tyrosine-phosphorylation-regulated kinase 3 (Homo sapiens, UniProt O43781).
T2 sequence (O43781 whole entry): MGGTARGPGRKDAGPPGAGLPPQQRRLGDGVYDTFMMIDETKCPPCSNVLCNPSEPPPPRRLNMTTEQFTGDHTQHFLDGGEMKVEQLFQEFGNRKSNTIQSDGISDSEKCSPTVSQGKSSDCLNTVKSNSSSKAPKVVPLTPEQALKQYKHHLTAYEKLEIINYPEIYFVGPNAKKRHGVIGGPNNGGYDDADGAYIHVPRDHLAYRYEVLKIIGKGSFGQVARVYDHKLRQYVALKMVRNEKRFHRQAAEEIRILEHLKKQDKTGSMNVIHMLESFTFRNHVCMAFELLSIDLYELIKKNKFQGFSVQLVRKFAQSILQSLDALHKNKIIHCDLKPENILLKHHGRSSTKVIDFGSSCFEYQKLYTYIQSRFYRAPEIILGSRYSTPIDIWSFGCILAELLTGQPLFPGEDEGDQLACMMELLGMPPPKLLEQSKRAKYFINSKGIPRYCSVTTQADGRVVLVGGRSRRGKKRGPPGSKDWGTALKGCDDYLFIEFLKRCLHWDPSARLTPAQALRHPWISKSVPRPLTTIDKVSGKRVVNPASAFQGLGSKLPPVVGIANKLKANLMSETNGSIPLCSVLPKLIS

The target in assay [8] is Dual specificity protein kinase CLK2 (Homo sapiens, UniProt P49760).
In assay [9] the target is T3, Dual specificity tyrosine-phosphorylation-regulated kinase 4 (Homo sapiens, UniProt Q9NR20).
T3 sequence (Q9NR20 whole entry): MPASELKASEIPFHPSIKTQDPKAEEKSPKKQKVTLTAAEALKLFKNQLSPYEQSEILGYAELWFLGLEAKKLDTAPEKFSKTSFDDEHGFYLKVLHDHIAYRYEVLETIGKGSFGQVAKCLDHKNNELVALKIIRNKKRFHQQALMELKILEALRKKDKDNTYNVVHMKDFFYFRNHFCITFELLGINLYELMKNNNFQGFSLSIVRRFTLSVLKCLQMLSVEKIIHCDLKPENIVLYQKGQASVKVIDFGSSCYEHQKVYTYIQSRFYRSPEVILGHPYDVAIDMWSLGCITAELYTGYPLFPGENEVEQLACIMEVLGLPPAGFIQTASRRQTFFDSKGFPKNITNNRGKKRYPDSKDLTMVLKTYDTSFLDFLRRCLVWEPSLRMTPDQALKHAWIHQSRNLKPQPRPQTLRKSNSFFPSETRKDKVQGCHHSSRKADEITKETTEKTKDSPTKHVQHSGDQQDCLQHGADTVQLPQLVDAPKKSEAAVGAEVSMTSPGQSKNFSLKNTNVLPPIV

Assay [10] concerns the target Dual specificity protein kinase CLK3 (Homo sapiens, UniProt P49761). In kind it is cell-based, Sf9.
In assay [11] the target is Dual specificity tyrosine-phosphorylation-regulated kinase 1A (Homo sapiens, UniProt Q13627).

Bounds are passed on as bounds.

Drawing on ChEMBL document CHEMBL5360622, “Leucettinibs, a Class of DYRK/CLK Kinase Inhibitors Inspired by the Marine Sponge Natural Product Leucettamine B” (J Med Chem, 2023), this text covers IC50 for 14 molecules.

Sequence of Dual specificity protein kinase CLK2 (P49760 whole entry): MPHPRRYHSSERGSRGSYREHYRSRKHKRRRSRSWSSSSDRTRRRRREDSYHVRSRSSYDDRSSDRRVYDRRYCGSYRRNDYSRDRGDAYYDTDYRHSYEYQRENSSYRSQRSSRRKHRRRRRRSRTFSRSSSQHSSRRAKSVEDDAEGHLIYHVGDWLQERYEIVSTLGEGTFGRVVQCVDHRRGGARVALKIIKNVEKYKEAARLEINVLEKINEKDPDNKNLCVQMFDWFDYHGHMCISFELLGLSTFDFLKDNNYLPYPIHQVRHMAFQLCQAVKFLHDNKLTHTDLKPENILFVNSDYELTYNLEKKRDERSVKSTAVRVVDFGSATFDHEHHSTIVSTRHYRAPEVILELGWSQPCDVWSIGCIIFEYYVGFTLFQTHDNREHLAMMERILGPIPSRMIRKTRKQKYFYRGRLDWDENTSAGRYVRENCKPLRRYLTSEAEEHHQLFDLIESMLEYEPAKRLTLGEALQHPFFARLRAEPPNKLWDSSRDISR
Sequence of Glycogen synthase kinase-3 beta (P49841 whole entry): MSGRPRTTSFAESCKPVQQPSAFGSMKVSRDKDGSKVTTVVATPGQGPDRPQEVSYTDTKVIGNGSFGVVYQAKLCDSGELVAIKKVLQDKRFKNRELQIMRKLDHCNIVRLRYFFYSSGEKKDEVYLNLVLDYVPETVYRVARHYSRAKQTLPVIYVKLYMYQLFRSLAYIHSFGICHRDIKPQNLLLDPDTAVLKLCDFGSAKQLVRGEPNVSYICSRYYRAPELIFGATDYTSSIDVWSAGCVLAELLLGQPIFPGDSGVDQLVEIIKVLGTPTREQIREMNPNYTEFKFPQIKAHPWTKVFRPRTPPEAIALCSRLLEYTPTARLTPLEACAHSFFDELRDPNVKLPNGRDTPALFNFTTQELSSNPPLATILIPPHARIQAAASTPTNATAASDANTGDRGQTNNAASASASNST
Sequence of Casein kinase I isoform epsilon (P49674 whole entry, canonical isoform): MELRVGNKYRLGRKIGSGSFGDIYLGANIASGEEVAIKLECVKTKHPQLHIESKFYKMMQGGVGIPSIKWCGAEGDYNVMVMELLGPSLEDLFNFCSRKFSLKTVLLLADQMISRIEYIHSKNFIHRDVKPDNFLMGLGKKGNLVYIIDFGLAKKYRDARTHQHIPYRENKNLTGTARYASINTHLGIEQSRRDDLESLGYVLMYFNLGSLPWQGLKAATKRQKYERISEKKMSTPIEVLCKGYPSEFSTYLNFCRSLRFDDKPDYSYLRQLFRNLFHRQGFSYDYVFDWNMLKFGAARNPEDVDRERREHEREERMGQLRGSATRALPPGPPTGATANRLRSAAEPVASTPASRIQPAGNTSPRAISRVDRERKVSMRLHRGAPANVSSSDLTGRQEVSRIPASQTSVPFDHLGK
Sequence of Cyclin-dependent kinase 5/CDK5 activator 1 (Q00535 whole entry, canonical isoform): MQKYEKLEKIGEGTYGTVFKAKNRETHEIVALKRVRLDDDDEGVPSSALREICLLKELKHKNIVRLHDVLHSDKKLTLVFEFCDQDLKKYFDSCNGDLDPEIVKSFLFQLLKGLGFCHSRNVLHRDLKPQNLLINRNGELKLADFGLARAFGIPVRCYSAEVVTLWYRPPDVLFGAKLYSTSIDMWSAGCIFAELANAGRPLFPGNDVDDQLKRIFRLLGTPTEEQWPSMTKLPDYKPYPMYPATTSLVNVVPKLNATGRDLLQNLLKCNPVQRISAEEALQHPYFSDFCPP
Sequence of Cyclin-dependent kinase 5/CDK5 activator 1 (Q15078 whole entry, further chain, canonical isoform): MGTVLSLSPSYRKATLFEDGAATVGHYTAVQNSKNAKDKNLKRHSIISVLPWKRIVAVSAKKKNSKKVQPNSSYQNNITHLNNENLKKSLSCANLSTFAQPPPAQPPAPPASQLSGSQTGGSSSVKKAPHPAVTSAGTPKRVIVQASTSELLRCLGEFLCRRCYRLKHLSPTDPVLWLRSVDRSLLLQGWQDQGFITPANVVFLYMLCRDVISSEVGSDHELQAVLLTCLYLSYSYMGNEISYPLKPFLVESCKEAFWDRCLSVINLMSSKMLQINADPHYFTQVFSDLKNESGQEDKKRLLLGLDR
Sequence of Dual specificity protein kinase CLK1 (P49759 whole entry): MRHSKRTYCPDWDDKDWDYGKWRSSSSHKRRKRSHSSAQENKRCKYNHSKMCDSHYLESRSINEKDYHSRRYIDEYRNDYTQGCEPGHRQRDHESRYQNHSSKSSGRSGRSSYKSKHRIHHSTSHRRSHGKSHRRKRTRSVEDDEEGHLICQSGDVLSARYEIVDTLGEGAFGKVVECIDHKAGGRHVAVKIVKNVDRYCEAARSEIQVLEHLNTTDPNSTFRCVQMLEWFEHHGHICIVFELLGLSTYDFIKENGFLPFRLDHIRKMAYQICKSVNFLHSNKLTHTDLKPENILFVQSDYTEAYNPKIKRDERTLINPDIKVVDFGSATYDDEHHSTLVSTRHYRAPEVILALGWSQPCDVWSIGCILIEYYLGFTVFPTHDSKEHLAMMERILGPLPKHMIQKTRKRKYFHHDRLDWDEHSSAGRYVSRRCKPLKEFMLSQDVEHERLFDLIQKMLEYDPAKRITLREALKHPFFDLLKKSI
Sequence of Dual specificity protein kinase CLK4 (Q9HAZ1 whole entry): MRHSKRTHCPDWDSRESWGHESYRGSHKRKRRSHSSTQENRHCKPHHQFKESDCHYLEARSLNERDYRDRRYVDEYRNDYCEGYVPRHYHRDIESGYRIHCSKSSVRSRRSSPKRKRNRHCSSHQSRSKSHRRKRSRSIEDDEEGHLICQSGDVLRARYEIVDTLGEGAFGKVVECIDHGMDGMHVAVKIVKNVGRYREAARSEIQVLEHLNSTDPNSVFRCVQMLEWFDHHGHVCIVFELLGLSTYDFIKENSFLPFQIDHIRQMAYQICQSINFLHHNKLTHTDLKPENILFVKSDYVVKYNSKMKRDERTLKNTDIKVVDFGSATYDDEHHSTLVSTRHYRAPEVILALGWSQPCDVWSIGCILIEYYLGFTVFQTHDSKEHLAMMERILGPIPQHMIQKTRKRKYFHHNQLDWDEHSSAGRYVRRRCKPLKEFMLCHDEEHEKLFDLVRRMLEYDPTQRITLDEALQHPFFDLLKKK
Sequence of Dual specificity protein kinase CLK3 (P49761 whole entry): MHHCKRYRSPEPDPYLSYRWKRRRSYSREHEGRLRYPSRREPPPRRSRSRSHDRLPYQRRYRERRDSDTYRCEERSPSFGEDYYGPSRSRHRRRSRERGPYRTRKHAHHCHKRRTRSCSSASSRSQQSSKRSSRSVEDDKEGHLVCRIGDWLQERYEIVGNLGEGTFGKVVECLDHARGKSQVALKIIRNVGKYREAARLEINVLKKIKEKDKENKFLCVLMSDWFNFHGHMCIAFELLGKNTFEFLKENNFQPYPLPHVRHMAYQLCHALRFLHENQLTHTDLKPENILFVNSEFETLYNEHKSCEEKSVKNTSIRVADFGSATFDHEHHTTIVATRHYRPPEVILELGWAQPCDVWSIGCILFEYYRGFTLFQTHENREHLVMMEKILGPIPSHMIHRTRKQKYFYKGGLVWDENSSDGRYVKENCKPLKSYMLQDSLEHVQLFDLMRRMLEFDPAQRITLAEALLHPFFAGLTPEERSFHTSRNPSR

Take `Cn1cnc2cc(/C=C3\N=C(NC4CCCCC4)NC3=O)ccc21`: the IC50 in assay [1], in assay [2], in [3], in [4], in assay [5] and in [6] was > 10000 nM each time. In addition, the half-maximal inhibitory concentration (IC50) in assay [7], in [8], in assay [9], in [10] and in assay [11] was > 10000 nM each time.

With `O=C1NC(NC23CC4CC(CC(C4)C2)C3)=N/C1=C\c1ccc2[nH]ncc2c1`, the concentration for half-maximal inhibition (IC50) in [1] was 260 nM; in [2], 7770 nM; in [3] it was 5 nM; in assay [4], > 10000 nM; in assay [6], 4 nM; in assay [7] it was 74 nM. For the same molecule, the IC50 was 14 nM in [8], 663 nM in [9], 1080 nM in assay [10] and 10 nM in assay [11].

On to `O=C1NC(NC2CCCCCC2)=N/C1=C\c1ccc2[nH]ccc2c1`, for which the IC50 in assay [1], in [2], in assay [3], in [4], in [5] and in assay [6] was > 10000 nM throughout. The half-inhibitory concentration (IC50) in assay [7], in [8], in assay [9], in assay [10] and in [11] was > 10000 nM in each case.

For the molecule `O=C1NC(NC2CCCCC2)=N/C1=C\c1ccc2c(c1)OCO2`, the IC50 in assay [2] is 8400 nM; in [3], 92 nM; in assay [4], > 10000 nM; in assay [5], > 10000 nM; in [6], 43 nM; in assay [7], 2080 nM. Also, the IC50 in assay [8] worked out at 955 nM; in [9], 1320 nM; in assay [10], 4280 nM; in assay [11] it was 74 nM.

Turning to `COc1ccc(/C=C2\N=C(Nc3ccc(N4CCN(C)CC4)cc3)NC2=O)cc1O`, the concentration for half-maximal inhibition (IC50) was determined as 15 nM in [1]; 200 nM in assay [2]; 12 nM in assay [3]; 12 nM in [6]; 10 nM in assay [7]; 30 nM in assay [8]. Besides, the IC50 in assay [10] came out at 700 nM; in assay [11] it was 14 nM.

As to `Cn1cnc2cc(/C=C3\N=C(NC4CCCCCC4)NC3=O)ccc21`, the 50% inhibitory concentration (IC50) in assay [1], in assay [2], in assay [3], in assay [4], in assay [5] and in assay [6] was > 10000 nM each time. The IC50 in assay [7], in [8], in [9], in [10] and in assay [11] was > 10000 nM throughout.

For `Cn1cnc2ccc(/C=C3\N=C(NC45CC6CC(CC(C6)C4)C5)NC3=O)cc21`, the IC50 in assay [1] is 95 nM; in assay [2] it was 1540 nM; in assay [3] it was 9 nM; in [4], 650 nM; in assay [5], > 10000 nM; in [6], 3 nM. In addition, the IC50 is 68 nM in [7]; 3 nM in [8]; 80 nM in assay [9]; 1060 nM in assay [10]; 7 nM in assay [11].

As to `Cn1cnc2cc(/C=C3\N=C(NC45CC6CC(CC(C6)C4)C5)NC3=O)ccc21`, the IC50 in assay [1], in [2], in assay [3], in [4], in [5] and in [6] was > 10000 nM in each case. In addition, the half-inhibitory concentration (IC50) in [7], in assay [8], in assay [9], in [10] and in assay [11] was > 10000 nM each time.

`O=C1NC(NC23CC4CC(CC(C4)C2)C3)=N/C1=C\c1ccc2ncoc2c1`: the half-inhibitory concentration (IC50) is 62 nM in assay [1]; 202 nM in [2]; 8 nM in [3]; 280 nM in assay [4]; > 10000 nM in assay [5]; 3 nM in assay [6]. In addition, the IC50 worked out at 38 nM in [7], 8530 nM in [10] and 1 nM in [11].

As to `Cn1ccc2cc(/C=C3\N=C(NC4CCCCC4)NC3=O)ccc21`, the IC50 in [1], in [2], in assay [3], in [4], in assay [5] and in assay [6] was > 10000 nM in each case. Further, the IC50 in [7], in assay [8], in assay [9], in [10] and in [11] was > 10000 nM throughout.

As for `O=C1NC(NC2CCCCC2)=N/C1=C\c1ccc2[nH]ccc2c1`, the IC50 in assay [1], in [2], in assay [3], in assay [4], in assay [5] and in assay [6] was > 10000 nM each time. The IC50 in [7], in assay [8], in assay [9], in assay [10] and in assay [11] was > 10000 nM each time.

On to `CN1CCN(c2ccc(NC3=N/C(=C\c4ccc5c(c4)OCCO5)C(=O)N3)cc2)CC1`, for which the IC50 was found to be 8 nM in [1]; 120 nM in assay [2]; 17 nM in assay [3]; 19 nM in assay [6]; 14 nM in [7]; 67 nM in assay [8]. For the same molecule, the 50% inhibitory concentration (IC50) came to 1100 nM in assay [10] and 7 nM in assay [11].

As to `Cn1ccc2cc(/C=C3\N=C(NC4CCCCCC4)NC3=O)ccc21`, the IC50 in [1], in assay [2], in [3], in [4], in assay [5] and in assay [6] was > 10000 nM throughout. Moreover, the IC50 in assay [7], in assay [8], in assay [9], in [10] and in [11] was > 10000 nM in each case.

In the case of `O=C1NC(NC23CC4(F)CC(F)(CC(F)(C4)C2)C3)=N/C1=C\c1ccc2ncsc2c1`, the concentration for half-maximal inhibition (IC50) in [1] stood at 10 nM; in assay [2] it was 94 nM; in [3], 11 nM; in [4], 25 nM; in [5], 62 nM; in assay [6], 4 nM. For the same molecule, the IC50 in assay [7] came out at 2 nM; in [9], 146 nM; in assay [10] it was 90 nM; in assay [11], 1 nM.

Usually IC50 stands for the concentration needed to halve the response being measured. Read a high IC50 as weaker potency in that assay.
